# From patent US9206215B2, “Hydrous crystalline 2-O-α-D-glucosyl-L-ascorbic acid, particulate composition comprising the same, their preparation and uses” (HAYASHIBARA CO., LTD., priority 2010, dated 2015)
# What was measured:
# Type in all cases: physicochemical
# [1] = Tabletting property (cracking or chipping of pressed tablets); settings: powder with particle size 53 to 106 μm, 0.4 g, one ton load for 30 sec, 10 tablets observed for cracking or chipping
# Source text: The tabletting property of a particulate composition containing hydrous crystalline ascorbic acid 2-glucoside of the present invention was investigated by the following method and compared with that of a conventional particulate composition containing anhydrous crystalline ascorbic acid 2-glucoside.
# A hydrous crystalline ascorbic acid 2-glucoside powder with an ascorbic acid 2-glucoside purity of 99.2% by weight, obtained by the method in Experiment 3, was sieved to collect a powder with a particle size ranging from 53 to 106 μm. The powder thus obtained was placed in a metallic mold for tabletting (11 mm diameter and 30 mm thickness) in an amount of 0.4 g, and tabletted by loading on the powder one ton for 30 sec using “SSP-10A”, a portable press machine, commercialized by Shimadzu Corp., Kyoto, Japan, followed by taking out the resulting tablets by releasing the load. The procedure was repeated 10 times to prepare 10 tablets in total. As a control, “AA2G”, a trade mark of a commercialized particulate composition containing anhydrous crystalline ascorbic acid 2-glucoside with a purity of at least 98%, commercialized by Hayashibara Biochemical Laboratories, Inc., Okayama, Japan, was used to prepare a powder with a particle size ranging from 53 to 106 μm, which was then prepared into 10 tablets by the same method as above. […]
# [2] = Oil-holding capacity with corn oil; settings: for Oil-holding capacity: five grams of corn oil, particle size 53 to 106 μm, powder added until end point
# Method: Using a particulate composition containing hydrous crystalline ascorbic acid 2-glucoside obtained by the method in Experiment 3-2, the oil-holding capacity of the particulate composition was determined. As a control, “AA2G”, a product name of a commercialized particulate composition containing anhydrous crystalline ascorbic acid 2-glucoside with a purity of at least 98% by weight, commercialized by Hayashibara Biochemical Laboratories, Inc., Okayama, Japan, was used.
# The measurements for oil-holding capacity of the particulate compositions were conducted as follows in accordance with the method disclosed in Japanese Patent Kokai No. 31650/84. Five grams of a corn oil (a reagent grade specimen, Lot No.: WKL1215, commercialized by Wako Pure Chemical Industries, Osaka, Japan, was placed in a 50-ml plastic container, to which was gradually added while stirring the particulate composition containing hydrous crystalline ascorbic acid 2-glucoside or the particulate composition containing anhydrous crystalline ascorbic acid 2-glucoside, both of which had been adjusted to give a particle size of 53 to 106 μm similarly as in Experiment 6. Although the resulting mixture retains a free-flowing ability while the additive amount of any of the particulate compositions is relatively low, but it increases its viscosity as the increase of the additive amount and becomes a clump in due course. As the additive amount further increases, the clump increases its hardness and finally it could not keep together and begins to be unstiffen. The moment was regarded as the end point and the oil-holding capacity was determined by the following equation based on the amount of each crystalline particulate composition that had been added until the end point.
# [3] = Tablet hardness measured on a rheometer; settings: tablet of Experiment 6, RHEOMETER CR-500DX
# Source text: During the preparation of tablets, the particulate composition was frequently observed, as a causative of cracking, to be adhered to a cylinder (punch) of the portable press machine at the stage of releasing the load and it induced cracking at the stage of taking out from the metallic mold of the press machine.
# [4] = listed as particulate composition containing anhydrous crystalline ascorbic acid 2-glucosi
# [5] = listed as particulate composition containing hydrous crystalline ascorbic acid 2-glucoside
Oil-holding capacity [2],"Oil-holding capacity [2, 4]",degree of hardness of tablet [3],"Oil-holding capacity [2, 5]",Oil-holding capacity relative to the anhydrous crystalline control ([2]; hydrous versus anhydrous particulate composition),Structure (SMILES),"Tablet form [1, 4]","Tablet form [1, 5]"
25.2,25.2,–,–,–,O=C1O[C@H]([C@@H](O)CO)C(O)=C1O[C@H]1O[C@H](CO)[C@@H](O)[C@H](O)[C@H]1O [Particulate composition containing anhydrous crystalline asc] [2-O-α-D-glucosyl-L-ascorbic acid],cracking or chipping was observed in 9 out of 10 tablets,–
38.3,–,about 90 N,38.3,about 1.5 folds,O=C1O[C@H]([C@@H](O)CO)C(O)=C1O[C@H]1O[C@H](CO)[C@@H](O)[C@H](O)[C@H]1O [Particulate composition containing hydrous crystalline ascor] [2-O-α-D-glucosyl-L-ascorbic acid],–,neither cracking nor chipping was observed in all the 10 tablets
